Test results published in PubChem BioAssay (NCI).
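Results reflect a 48-hour exposure of cells in 96-well plates to compound at five concentrations. At the GI50, growth is halved. TGI marks complete inhibition of growth.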

How the values were obtained:
Assay in all cases: NCI tumour cell line growth inhibition, 48 h
BT-549 breast = system: BT-549 breast
HCT-116 colon = system: HCT-116 colon
IGROV1 ovarian = system: IGROV1 ovarian
M14 melanoma = system: M14 melanoma
PC-3 prostate = system: PC-3 prostate
CAKI-1 renal = system: CAKI-1 renal
HOP-92 NSCLC = system: HOP-92 NSCLC
NCI-H460 lung = system: NCI-H460 lung
T-47D breast = system: T-47D breast
UO-31 renal = system: UO-31 renal
OVCAR-8 ovarian = system: OVCAR-8 ovarian
SN12C renal = system: SN12C renal
SNB-19 CNS = system: SNB-19 CNS
K-562 leukemia = system: K-562 leukemia
NCI-H23 lung = system: NCI-H23 lung
NCI-H226 lung = system: NCI-H226 lung
OVCAR-5 ovarian = system: OVCAR-5 ovarian
A498 renal = system: A498 renal
KM12 colon = system: KM12 colon
LOX IMVI melanoma = system: LOX IMVI melanoma
UACC-62 melanoma = system: UACC-62 melanoma
ACHN renal = system: ACHN renal
SK-OV-3 ovarian = system: SK-OV-3 ovarian
SF-295 CNS = system: SF-295 CNS
SF-539 CNS = system: SF-539 CNS
NCI/ADR-RES ovarian = system: NCI/ADR-RES ovarian
EKVX NSCLC = system: EKVX NSCLC
SR leukemia = system: SR leukemia
HCC-2998 colon = system: HCC-2998 colon
OVCAR-3 ovarian = system: OVCAR-3 ovarian
SNB-75 CNS = system: SNB-75 CNS
HOP-62 NSCLC = system: HOP-62 NSCLC
SK-MEL-2 melanoma = system: SK-MEL-2 melanoma
HT29 colon = system: HT29 colon
MDA-MB-435 = system: MDA-MB-435
OVCAR-4 ovarian = system: OVCAR-4 ovarian
MOLT-4 leukemia = system: MOLT-4 leukemia
SW-620 colon = system: SW-620 colon
786-0 renal = system: 786-0 renal
MDA-N = system: MDA-N
SK-MEL-28 melanoma = system: SK-MEL-28 melanoma
U251 CNS = system: U251 CNS
MDA-MB-231 breast = system: MDA-MB-231 breast
MCF7 breast = system: MCF7 breast
HCT-15 colon = system: HCT-15 colon
A549 NSCLC = system: A549 NSCLC
UACC-257 melanoma = system: UACC-257 melanoma
DU-145 prostate = system: DU-145 prostate
MALME-3M melanoma = system: MALME-3M melanoma
RPMI-8226 leukemia = system: RPMI-8226 leukemia
NCI-H522 lung = system: NCI-H522 lung
CCRF-CEM leukemia = system: CCRF-CEM leukemia
COLO 205 colon = system: COLO 205 colon
SK-MEL-5 melanoma = system: SK-MEL-5 melanoma
HL-60(TB) leukemia = system: HL-60(TB) leukemia
RXF 393 renal = system: RXF 393 renal

C=C[C@@]1(C)CC(=O)[C@]2(O)[C@@]3(C)[C@@H](OC(C)=O)CCC(C)(C)[C@@H]3[C@H](OC(C)=O)[C@H](OC(C)=O)[C@@]2(C)O1
TGI (BT-549 breast): > 100 µM
TGI (HCT-116 colon): > 100 µM
TGI (IGROV1 ovarian): > 100 µM
TGI (M14 melanoma): > 100 µM
TGI (PC-3 prostate): > 100 µM
TGI (CAKI-1 renal): > 100 µM
TGI (HOP-92 NSCLC): > 100 µM
TGI (NCI-H460 lung): > 100 µM
TGI (T-47D breast): > 100 µM
TGI (UO-31 renal): > 100 µM
TGI (OVCAR-8 ovarian): > 100 µM
TGI (SN12C renal): > 100 µM
TGI (SNB-19 CNS): > 100 µM
TGI (K-562 leukemia): > 100 µM
TGI (NCI-H23 lung): > 100 µM
TGI (NCI-H226 lung): > 100 µM
TGI (OVCAR-5 ovarian): > 100 µM
TGI (A498 renal): > 100 µM
TGI (KM12 colon): > 100 µM
TGI (LOX IMVI melanoma): > 100 µM
TGI (UACC-62 melanoma): > 100 µM
TGI (ACHN renal): > 100 µM
TGI (SK-OV-3 ovarian): > 100 µM
TGI (SF-295 CNS): > 100 µM
TGI (SF-539 CNS): > 100 µM
TGI (NCI/ADR-RES ovarian): > 100 µM
TGI (EKVX NSCLC): > 100 µM
TGI (SR leukemia): > 100 µM
TGI (HCC-2998 colon): > 100 µM
TGI (OVCAR-3 ovarian): > 100 µM
TGI (SNB-75 CNS): > 100 µM
TGI (HOP-62 NSCLC): > 100 µM
TGI (SK-MEL-2 melanoma): > 100 µM
TGI (HT29 colon): > 100 µM
TGI (MDA-MB-435): > 100 µM
TGI (OVCAR-4 ovarian): > 100 µM
TGI (MOLT-4 leukemia): > 100 µM
TGI (SW-620 colon): > 100 µM
TGI (786-0 renal): > 100 µM
TGI (MDA-N): > 100 µM
TGI (SK-MEL-28 melanoma): > 100 µM
TGI (U251 CNS): > 100 µM
TGI (MDA-MB-231 breast): > 100 µM
TGI (MCF7 breast): > 100 µM
TGI (HCT-15 colon): > 100 µM
TGI (A549 NSCLC): > 100 µM
TGI (UACC-257 melanoma): > 100 µM
TGI (DU-145 prostate): > 100 µM

Oc1cc2cccc[n+]2c2cccc(Cl)c12
GI50 (MALME-3M melanoma): 18.4 µM
TGI (MALME-3M melanoma): 40.4 µM
GI50 (BT-549 breast): 50.6 µM
GI50 (HCT-116 colon): 55.7 µM
GI50 (IGROV1 ovarian): 31.4 µM
GI50 (M14 melanoma): 66.8 µM
GI50 (RPMI-8226 leukemia): 40.4 µM
GI50 (NCI-H522 lung): 94.8 µM
GI50 (HOP-92 NSCLC): 15.8 µM
TGI (HOP-92 NSCLC): 71.5 µM
GI50 (NCI-H460 lung): 82.1 µM
GI50 (UO-31 renal): 31.3 µM
TGI (UO-31 renal): 93 µM
GI50 (SN12C renal): 17.2 µM
TGI (SN12C renal): 45.4 µM
GI50 (SNB-19 CNS): 92.3 µM
GI50 (K-562 leukemia): 25.4 µM
TGI (K-562 leukemia): 76 µM
GI50 (NCI-H23 lung): 25.2 µM
TGI (NCI-H23 lung): 72.5 µM
GI50 (CCRF-CEM leukemia): 26.1 µM
TGI (CCRF-CEM leukemia): 73.7 µM
GI50 (UACC-62 melanoma): 32.6 µM
GI50 (ACHN renal): 21.7 µM
TGI (ACHN renal): 52.5 µM
GI50 (COLO 205 colon): 26.3 µM
TGI (COLO 205 colon): 87.3 µM
GI50 (SF-295 CNS): 95.3 µM
GI50 (SF-539 CNS): 71.8 µM
GI50 (EKVX NSCLC): 38.4 µM
GI50 (SR leukemia): 67.5 µM
GI50 (HCC-2998 colon): 52.4 µM
GI50 (HT29 colon): 40.7 µM
GI50 (MDA-MB-435): 17.4 µM
TGI (MDA-MB-435): 40.8 µM
GI50 (OVCAR-4 ovarian): 16.2 µM
TGI (OVCAR-4 ovarian): 39.5 µM
GI50 (MOLT-4 leukemia): 34.9 µM
GI50 (SW-620 colon): 32.8 µM
GI50 (SK-MEL-5 melanoma): 19.7 µM
TGI (SK-MEL-5 melanoma): 34.7 µM
GI50 (MDA-N): 16.9 µM
TGI (MDA-N): 33.5 µM
GI50 (HL-60(TB) leukemia): 35.8 µM
GI50 (SK-MEL-28 melanoma): 21.8 µM
GI50 (U251 CNS): 42 µM
GI50 (MDA-MB-231 breast): 91.5 µM
GI50 (MCF7 breast): 16.7 µM
TGI (MCF7 breast): 36.5 µM
GI50 (HCT-15 colon): 49.4 µM
GI50 (UACC-257 melanoma): 21.7 µM
TGI (UACC-257 melanoma): 48.4 µM
GI50 (RXF 393 renal): 26.1 µM
TGI (RXF 393 renal): 74.6 µM
GI50 (DU-145 prostate): 62.3 µM
